From US8034812B2, “Imidazopyridazine derivative having kinase inhibitory activity and pharmaceutical agent thereof” (Takeda Pharmaceutical Company Limited, priority 2006, dated 2011)

What was measured:
[1] = biological target: T1, PDGFRβ intracellular domain protein (Homo sapiens, UniProt P09619); experiment: Determination of platelet-derived growth factor receptor β (PDGFRβ) kinase inhibitory activity (AlphaScreen); format: biochemical
T1 construct: 125 ng/ml of PDGFRβ intracellular domain protein (UPSTATE); purchased UPSTATE
Protocol: (§1) A test compound dissolved in dimethyl sulfoxide (DMSO) was diluted with a buffer (50 mM Tris-HCl (pH 7.5), 5 mM MgCl2, 5 mM MnCl2, 2 mM dithiothreitol, 0.01% Tween-20). To this compound solution (5 μL) was added a buffer (10 μL) containing 125 ng/ml of PDGFRβ intracellular domain protein (UPSTATE) and 250 ng/mL of biotin labeled polypeptide biotinyl-poly-Glu:Tyr (4:1) (CIS bio International). At 5 min after mixing kinase enzyme and the compound and biotin labeled polypeptide, to the obtained mixture was added a buffer (10 μL) containing ATP (25 μM), the mixture was allowed to react at 25° C. for 30 min and the reaction was quenched with 25 μL of a stop solution (100 mM EDTA disodium salt, 62.5 mM HEPES buffer (pH 7.4), 250 mM NaCl, 0.1% bovine serum albumin, 10 μg/mL AlphaScreen assay streptavidin donor beads (Streptavidin Donor Beads: PerkinElmer), 10 μg/mL AlphaScreen assay anti-phosphotyrosine recognition antibody PT-66 binding acceptor beads (Anti-phosphotyrosine (P-Tyr-66) Acceptor beads: PerkinElmer)). The reaction solution was allowed to stand at 25° C. for 16 hrs, and the wells were counted using a plate reader Fusion™ (PerkinElmer). The kinase inhibitory rate (%) of the test compound was calculated by the following formula: Inhibitory rate(%)=(1−(count of test compound=blank)÷(control−blank))×100
(§2) The count of the solution reacted without addition of the compound was used as a “control”, and the count of the solution without the compound and ATP was used as a “blank”.

[2] = system: Human umbilical vein-derived vascular endothelial cells (HUVEC); experiment: Vascular endothelial cell growth inhibitory test (VEGF-stimulated HUVEC, XTT); format: cell-based; details: 120 h, 5 days of culture
Protocol: To be specific, HUVEC was suspended in a vascular endothelial cell medium containing the aforementioned 5% bovine fetal serum and plated on a 96 well flat bottom plate by 50 μL (3000 cells) each well. After culture overnight, various concentrations of the test substance and 120 ng/mL of vascular endothelial growth factor (VEGF) were dissolved in a vascular endothelial cell medium containing 5% bovine fetal serum and added to each well by 50 μL. After 5 days of culture, a XTT reagent (Wako Pure Chemical Industries, Ltd.) was added to each well by 10 μL, and the mixture was reacted in an incubator at 37° C., 5% carbon dioxide for 2-3 hr. The absorbance at 450 nm was measured by a microtiter plate reader and the cell growth inhibitory activity was determined.

[3] = biological target: T2, VEGFR2 intracellular domain protein (Homo sapiens, UniProt P35968); experiment: Determination of vascular endothelial growth factor receptor 2 (VEGFR2) kinase inhibitory activity (AlphaScreen); format: biochemical; details: read-out: VEGFR2 kinase inhibitory rate
T2 construct: made in house; host or cells: SF-21 insect cells, recombinant baculovirus BAC-VEGFR2
Protocol: Human vascular endothelial growth factor receptor 2 (hereinafter to be referred to as VEGFR2) gene was cloned by PCR using cDNA Libraries Human Placenta (Clontech) as a template. The primer used for PCR was prepared from base sequence (Genbank Accession AF035121) information of VEGFR2 gene by adding a base sequence encoding flag peptide and a recognition sequence of the restriction enzyme to a base sequence (2671-4374 of Genbank Accession AF035121) encoding the VEGFR2 intracellular domain region, so that the protein contains an N-terminal Flag tag. The primer base sequence is shown below.
SF-21 cells were sown at 1×10^6 cells/mL to Sf-900II SFM medium (1 L, Invitrogen) containing 10% fetal bovine serum (trace), 50 mg/L Gentamicin (Invitrogen) and 0.1% Pluronic F-68 (Invitrogen), and shaking culture was performed using a 2 L volume Erlenmeyer flask at 27° C., 100 rpm. After culturing for 24 hrs, recombinant baculovirus BAC-VEGFR2 (13.4 mL) was added to the mixture, and the mixture was further cultured for 3 days. The culture medium was centrifuged at 2,000 rpm for 5 min to give virus-infected cells. The infected cells were washed with a phosphate buffered saline (Invitrogen), centrifuged under the same conditions, and the cells were preserved at −80° C. The cryopreserved cells were thawed in ice, suspended in buffer A (50 mM Tris buffer (30 mL, pH 7.4) containing 20% glycerol, 0.15 M NaCl) supplemented with Complete Protease Inhibitor (Boehringer), and ruptured 3 times with a Polytron homogenizer (Kinematica) at 20,000 rpm for 30 sec. The ruptured medium was clarified by centrifugation at 40,000 rpm for 30 min and filtered with a 0.45 μm filter. The filtrate was passed through a column packed with Anti-FLAG M2 Affinity Gel (4 mL, Sigma) at a flow rate of about 0.5 mL/min. The column was washed with buffer A, and eluted with buffer A containing 100 μg/mL of FLAG peptide. The eluate was concentrated with Vivaspin 20 (Vivascience) having a molecular weight cut off of 30K. The buffer of this concentrate was exchanged using NAP™ 25 column (Amersham Bioscience) equilibrated with buffer A. The fractions containing intracellular domain protein of VEGFR2 were collected, glycerol was added to the final concentration of 50% and cryopreserved at −80° C.
A test compound dissolved in dimethyl sulfoxide (DMSO) was diluted with a buffer (50 mM Tris-HCl (pH 7.5), 5 mM MgCl2, 5 mM MnCl2, 2 mM dithiothreitol, 0.01% Tween-20). To this compound solution (5 μL) was added a buffer (10 μL) containing 50 ng/mL of VEGFR2 intracellular domain protein and 250 ng/mL of biotin labeled polypeptide biotinyl-poly-Glu:Tyr (4:1) (CIS bio International). To the obtained mixture was added a buffer (10 μL) containing ATP (25 μM), the mixture was allowed to react at 25° C. for 5 min and the reaction was quenched with 25 μL of a stop solution (100 mM EDTA disodium salt, 62.5 mM HEPES buffer (pH 7.4), 250 mM NaCl, 0.1% bovine serum albumin, 10 μg/mL AlphaScreen assay streptavidin donor beads (Streptavidin Donor beads: PerkinElmer), 10 μg/mL AlphaScreen assay anti-phosphotyrosine recognition antibody PY-100 binding acceptor beads (Anti-phosphotyrosine (P-Tyr-100) Acceptor beads: PerkinElmer)). The reaction solution was allowed to stand at 25° C. for 16 hrs, and the wells were counted using a plate reader Fusion™ (PerkinElmer). The kinase inhibitory rate (%) of the test compound was calculated by the following formula: Inhibitory rate(%)=(1−(count of test compound−blank)÷(control−blank))×100

[4] = biological target: T3, PDGFRα intracellular domain protein (Homo sapiens, UniProt P16234); experiment: Determination of platelet-derived growth factor receptor α (PDGFRα) kinase inhibitory activity (AlphaScreen); format: biochemical
T3 construct: 125 ng/ml of PDGFRα intracellular domain protein (UPSTATE); purchased UPSTATE
Protocol: as §1, with “PDGFRα” for “PDGFRβ”, “beads:” for “Beads:”, “compound−blank)÷(control−blank))×100” for “compound=blank)÷(control−blank))×100”
as §2

T3 sequence (P16234 550-1089 limits assumed): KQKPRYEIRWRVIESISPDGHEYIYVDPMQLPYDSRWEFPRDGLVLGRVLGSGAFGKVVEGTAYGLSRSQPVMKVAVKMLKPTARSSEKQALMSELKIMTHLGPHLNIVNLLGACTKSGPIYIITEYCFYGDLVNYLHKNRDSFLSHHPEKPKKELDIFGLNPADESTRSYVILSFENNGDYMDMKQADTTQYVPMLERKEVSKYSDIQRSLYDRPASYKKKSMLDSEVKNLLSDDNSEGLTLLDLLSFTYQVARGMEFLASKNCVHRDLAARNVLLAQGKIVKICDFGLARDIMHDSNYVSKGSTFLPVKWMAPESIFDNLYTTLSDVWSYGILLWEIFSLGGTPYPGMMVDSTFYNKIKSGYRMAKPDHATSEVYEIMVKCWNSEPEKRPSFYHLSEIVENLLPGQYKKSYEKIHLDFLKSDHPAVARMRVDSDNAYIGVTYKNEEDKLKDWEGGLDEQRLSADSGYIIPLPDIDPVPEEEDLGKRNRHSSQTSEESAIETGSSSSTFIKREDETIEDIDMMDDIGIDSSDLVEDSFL
T2 sequence (P35968 786-1356 limits assumed): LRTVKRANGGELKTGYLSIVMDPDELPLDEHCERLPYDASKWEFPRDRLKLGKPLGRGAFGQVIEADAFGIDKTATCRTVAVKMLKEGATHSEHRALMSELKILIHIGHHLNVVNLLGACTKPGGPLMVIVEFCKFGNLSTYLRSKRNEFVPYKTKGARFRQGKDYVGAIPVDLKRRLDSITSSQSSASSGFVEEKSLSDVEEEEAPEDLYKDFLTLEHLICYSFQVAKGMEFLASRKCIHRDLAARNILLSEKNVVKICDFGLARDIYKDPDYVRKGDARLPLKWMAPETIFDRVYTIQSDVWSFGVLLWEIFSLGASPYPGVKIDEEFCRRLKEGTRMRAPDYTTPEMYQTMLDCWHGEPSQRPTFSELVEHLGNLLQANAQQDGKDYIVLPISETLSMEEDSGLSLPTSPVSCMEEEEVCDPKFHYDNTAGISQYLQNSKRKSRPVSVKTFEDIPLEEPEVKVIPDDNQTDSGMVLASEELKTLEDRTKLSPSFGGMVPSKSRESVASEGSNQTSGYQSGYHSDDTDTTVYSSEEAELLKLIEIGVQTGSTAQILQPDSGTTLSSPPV
T1 sequence (P09619 554-1106 limits assumed): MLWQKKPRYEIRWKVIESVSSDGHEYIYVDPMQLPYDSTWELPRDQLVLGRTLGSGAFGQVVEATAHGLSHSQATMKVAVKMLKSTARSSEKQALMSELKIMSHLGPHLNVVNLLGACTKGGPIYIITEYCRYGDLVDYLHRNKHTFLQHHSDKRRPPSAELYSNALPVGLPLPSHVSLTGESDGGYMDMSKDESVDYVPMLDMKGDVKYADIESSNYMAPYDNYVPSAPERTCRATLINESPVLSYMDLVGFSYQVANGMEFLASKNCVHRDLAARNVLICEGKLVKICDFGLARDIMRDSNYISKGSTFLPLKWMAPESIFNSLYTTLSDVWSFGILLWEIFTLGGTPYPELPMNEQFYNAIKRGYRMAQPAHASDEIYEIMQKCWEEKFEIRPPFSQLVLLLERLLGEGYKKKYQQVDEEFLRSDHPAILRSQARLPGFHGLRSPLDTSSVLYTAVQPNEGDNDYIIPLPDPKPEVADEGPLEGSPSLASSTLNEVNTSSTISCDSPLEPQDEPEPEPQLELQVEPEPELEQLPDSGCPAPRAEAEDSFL

Which results are given for `Cc1cc(C(=O)Nc2cc(Oc3ccc4nc(NC(=O)C5CC5C)cn4n3)ccc2F)n(C)n1` (stereo not drawn) [Example 243, N-{2-fluoro-5-[(2-{[(2-methylcyclopropyl)carbonyl]amino}imidazo[1,2-b]pyridazin-6-yl)oxy]phenyl}-1,3-dimethyl-1H-pyrazole-5-carboxamide]?
IC50 [1]: ≤ 500 nM; IC50 [2]: ≤ 500 nM; inhibition at 1 µM [3]: ≥ 90%; IC50 [4]: ≤ 500 nM

With `CCc1cc(C(=O)Nc2cc(Oc3ccc4nc(NC(=O)C5CC5)cn4n3)ccc2F)n(C)n1` [Example 208, N-[5-({2-[(cyclopropylcarbonyl)amino]imidazo[1,2-b]pyridazin-6-yl}oxy)-2-fluorophenyl]-3-ethyl-1-methyl-1H-pyrazole-5-carboxamide] as the compound, how does the IC50 [1] read?
The IC50 was ≤ 500 nM.

And the IC50 [2]?
Its IC50 is ≤ 500 nM.

And the inhibition at 1 µM [3]?
The inhibition at 1 µM was ≥ 90%.

And the IC50 [4]?
Its IC50 is ≤ 500 nM.

How did the IC50 [1] turn out when `O=C(Nc1cccc(Oc2ccc3nc(NC(=O)C4CC4)cn3n2)c1)c1ccccc1` [Example 165, N-[3-({2-[(cyclopropylcarbonyl)amino]imidazo[1,2-b]pyridazin-6-yl}oxy)phenyl]benzamide] was run?
The IC50 was ≤ 500 nM.

What about the IC50 [2] of the same compound?
The IC50 was ≤ 500 nM.

And the inhibition at 1 µM [3]?
The inhibition at 1 µM was ≥ 90%.

And the IC50 [4]?
The IC50 was ≤ 500 nM.

What does the source list for `CCc1cc(C(=O)Nc2cc(Oc3ccc4nc(NC(=O)C5CC5)cn4n3)ccc2Cl)n(C)n1` [Example 247, N-[2-chloro-5-({2-[(cyclopropylcarbonyl)amino]imidazo[1,2-b]pyridazin-6-yl}oxy)phenyl]-3-ethyl-1-methyl-1H-pyrazole-5-carboxamide]?
IC50 [1]: ≤ 500 nM; IC50 [2]: ≤ 500 nM; inhibition at 1 µM [3]: ≥ 90%; IC50 [4]: ≤ 500 nM

For `Cc1cc(C(=O)Nc2cccc(Nc3ccc4nc(NC(=O)C5CC5)cn4n3)c2)n(C)n1` [Example 317, N-[3-({2-[(cyclopropylcarbonyl)amino]imidazo[1,2-b]pyridazin-6-yl}amino)phenyl]-1,3-dimethyl-1H-pyrazole-5-carboxamide], which IC50 [1] is on record?
Its IC50 is ≤ 500 nM.

What about the IC50 [2] of the same compound?
Its IC50 is ≤ 500 nM.

What about the inhibition at 1 µM [3] of the same compound?
The inhibition at 1 µM was ≥ 90%.

What about the IC50 [4] of the same compound?
The IC50 was ≤ 500 nM.

Which IC50 [1] does the source give for `Cc1nc(C)c(C(=O)Nc2cc(Oc3ccc4nc(NC(=O)C5CC5)cn4n3)ccc2F)s1` [Example 267, N-[5-({2-[(cyclopropylcarbonyl)amino]imidazo[1,2-b]pyridazin-6-yl}oxy)-2-fluorophenyl]-2,4-dimethyl-1,3-thiazole-5-carboxamide] here?
Its IC50 is ≤ 500 nM.

And the IC50 [2]?
Its IC50 is ≤ 500 nM.

What about the inhibition at 1 µM [3] of the same compound?
The inhibition at 1 µM was ≥ 90%.

And the IC50 [4]?
Its IC50 is ≤ 500 nM.

How did the IC50 [1] turn out when `Cn1nccc1C(=O)Nc1cc(Oc2ccc3nc(NC(=O)C4CC4)cn3n2)ccc1F` [Example 287, N-[5-({2-[(cyclopropylcarbonyl)amino]imidazo[1,2-b]pyridazin-6-yl}oxy)-2-fluorophenyl]-1-methyl-1H-pyrazole-5-carboxamide] was run?
The IC50 was ≤ 500 nM.

What about the IC50 [2] of the same compound?
Its IC50 is ≤ 500 nM.

What about the inhibition at 1 µM [3] of the same compound?
The inhibition at 1 µM was ≥ 90%.

What about the IC50 [4] of the same compound?
Its IC50 is ≤ 500 nM.

How did the IC50 [1] turn out when `Cc1ccc(Oc2ccc3nc(NC(=O)C4CC4)cn3n2)cc1NC(=O)c1scnc1C` [Example 298, N-[5-({2-[(cyclopropylcarbonyl)amino]imidazo[1,2-b]pyridazin-6-yl}oxy)-2-methylphenyl]-4-methyl-1,3-thiazole-5-carboxamide] was run?
Its IC50 is ≤ 500 nM.

And the IC50 [2]?
Its IC50 is ≤ 500 nM.

And the inhibition at 1 µM [3]?
Its inhibition at 1 µM is ≥ 90%.

What about the IC50 [4] of the same compound?
The IC50 was ≤ 500 nM.

How did the IC50 [1] turn out when `CCn1cc(C(=O)Nc2cc(Oc3ccc4nc(NC(=O)C5CC5)cn4n3)ccc2F)c(C)n1` [Example 161, N-[5-({2-[(cyclopropylcarbonyl)amino]imidazo[1,2-b]pyridazin-6-yl}oxy)-2-fluorophenyl]-1-ethyl-3-methyl-1H-pyrazole-4-carboxamide] was run?
The IC50 was ≤ 500 nM.

And the IC50 [2]?
Its IC50 is ≤ 500 nM.

What about the inhibition at 1 µM [3] of the same compound?
The inhibition at 1 µM was ≥ 90%.

What about the IC50 [4] of the same compound?
The IC50 was ≤ 500 nM.

Which IC50 [1] does the source give for `CC#CC(=O)Nc1cc(Oc2ccc3nc(NC(=O)C4CC4)cn3n2)ccc1C` [Example 241, N-{6-[3-(but-2-ynoylamino)-4-methylphenoxy]imidazo[1,2-b]pyridazin-2-yl}cyclopropanecarboxamide] here?
The IC50 was ≤ 500 nM.

What about the IC50 [2] of the same compound?
Its IC50 is ≤ 500 nM.

And the inhibition at 1 µM [3]?
The inhibition at 1 µM was ≥ 90%.

And the IC50 [4]?
Its IC50 is ≤ 500 nM.

With `Cc1nn(C)cc1C(=O)Nc1cc(Oc2ccc3nc(NC(=O)C4CC4)cn3n2)ccc1F` [Example 173, N-[5-({2-[(cyclopropylcarbonyl)amino]imidazo[1,2-b]pyridazin-6-yl}oxy)-2-fluorophenyl]-1,3-dimethyl-1H-pyrazole-4-carboxamide] as the compound, how does the IC50 [1] read?
The IC50 was ≤ 500 nM.

What about the IC50 [2] of the same compound?
The IC50 was ≤ 500 nM.

And the inhibition at 1 µM [3]?
Its inhibition at 1 µM is ≥ 90%.

What about the IC50 [4] of the same compound?
Its IC50 is ≤ 500 nM.

With `CCc1nc(C)c(C(=O)Nc2cc(Oc3ccc4nc(NC(=O)C5CC5)cn4n3)ccc2F)o1` [Example 314, N-[5-({2-[(cyclopropylcarbonyl)amino]imidazo[1,2-b]pyridazin-6-yl}oxy)-2-fluorophenyl]-2-ethyl-4-methyl-1,3-oxazole-5-carboxamide] as the compound, how does the IC50 [1] read?
Its IC50 is ≤ 500 nM.

And the IC50 [2]?
Its IC50 is ≤ 500 nM.

What about the inhibition at 1 µM [3] of the same compound?
The inhibition at 1 µM was ≥ 90%.

What about the IC50 [4] of the same compound?
The IC50 was ≤ 500 nM.
